Experimental data: publication PMC11017252, “Copper(II) Complexes with 2,2′:6′,2″-Terpyridine Derivatives Displaying Dimeric Dichloro−μ–Bridged Crystal Structure: Biological Activities from 2D and 3D Tumor Spheroids to In Vivo Models” (Journal of Medicinal Chemistry, 2024)
Like-named read-outs stand apart in the source and are kept apart here.

Assays:
[1] = tested on: HCT116 (colorectal carcinoma cell line); assay: MTS cell viability assay, 2D culture, HCT116; format: cell-based, human
[2] = tested on: A2780 (ovarian carcinoma cell line); assay: MTS cell viability assay, 2D culture, A2780; format: cell-based, human
[3] = tested on: HCT116DoxR (Dox-resistant colorectal carcinoma cell line); conditions: cited from earlier work
[4] = tested on: HCT116DoxR cells; assay: Cell cycle progression (PI, flow cytometry)
[5] = tested on: HCT116DoxR cells; assay: Annexin V-FITC/PI apoptosis assay by flow cytometry; conditions: 48 h, complexes at IC50, Dox 6 μM, cisplatin 5 μM
[6] = tested on: HCT116DoxR cells; assay: Cellular senescence (β-galactosidase, flow cytometry); conditions: 48 h; complexes at IC50, cisplatin 5 μM, Dox 6 μM
[7] = tested on: normal human primary dermal fibroblasts; parameters: method as in PMID 29688241; conditions: 48 h; previously obtained; cited from earlier work
[8] = tested on: HCT116DoxR (Dox-resistant colorectal carcinoma cell line); assay: MTS cell viability assay, 2D culture, HCT116DoxR; conditions: read-out: IC50 (μM) HCT116DoxR, 48 h of exposure
[9] = tested on: caspase-8; assay: Caspase-8 activity (IETD-pNA cleavage); format: cell-based, human; conditions: HCT116DoxR, 48 h; complexes at IC50, cisplatin 5 μM
Experimental: In this assay, the chromogenic substrate IETD-pNA, resulting from the conjugation between the peptide IETD (Ile-Glu-Thr-Asp) and the chromophore pNA (p-nitroanilide), is cleaved by caspase-8, releasing the chromophore, which is detected by measuring absorbance at 400 nm.[48] […]
treated with ECLTM Prime Western Blotting Detection Reagents (Cytiva, United Kingdom) for 5 min and exposed to a film in a dark room. Membranes were later incubated (with agitation) twice with Stripping buffer (0.1M glycine, 20 mM magnesium acetate, 50 mM KCl, pH 2.0) during 10 and 20 min, respectively, and subsequently incubated with anti-β-actin (1:5000; Sigma, St. Louis, USA) as a control to normalize the results. Proteins were quantified by densitometry using Image J software.
The Caspase-8 activity in HCT116DoxR cells exposed to Cu(II) complexes was evaluated using the Caspase-8 Assay kit (ab39700) (Abcam, Cambridge, United Kingdom). […]
The plate was then incubated for 2 h at 37°C, after which, absorbance was read at 400 nm on a Tecan Infinite M200 microplate reader (Männedorf, Switzerland).
ΔΨm was evaluated in HCT116DoxR cell line by using the JC-1 Mitochondrial Membrane Potential Assay Kit (Abnova Corporation, Walnut, CA, USA). […]
Autophagy induction in HCT116DoxR cell line was evaluated using the Autophagy Assay Kit (ab139484) (Abcam, Cambridge, United Kingdom) according to the manufacturers’ instructions. […]

IC50 ([1]; Homo sapiens, HCT-116, 48 h of exposure) | IC50 ([2]; Homo sapiens, A2780, 48 h of exposure) | Structure (SMILES) | IC50 [3] | cell cycle arrest in the G2/M phase ([4]; Dox 6 μM, 9–24 h) | cells (%) early apoptosis [5] | cells (%) late apoptosis [5] | cells (%) necrosis [5] | cells (%) viable [5] | percentage of apoptosis (early + late) [5] | viability at 6 µM ([5]; Homo sapiens, read-out: cells (%) viable, 48 h) | induction of cellular senescence compared to DMSO control [6] | IC50 [7] | IC50 [8] | IC50 ([1]; 48 h of exposure) | IC50 ([2]; 48 h of exposure) | increase in caspase-8 activity compared to vehicle control (DMSO) [9] | cell cycle progression after 24 h ([4]; 24 h, complexes at IC50, cisplatin 5 μM)
0.5 ± 0.1 µM | 0.1 ± 0.04 µM | COc1cccc2c1C(=O)c1c(O)c3c(c(O)c1C2=O)C[C@@](O)(C(=O)CO)C[C@@H]3O[C@H]1C[C@H](N)[C@H](O)[C@H](C)O1 [Dox, doxorubicin, reference compound] | > 6 µM | not verified | 16.6 ± 5.5% | 13.9 ± 1.9% | 9.8 ± 4.0% | 59.8 ± 3.8% | ~31% | ~60% | did not induce an increase in cellular senescence |  |  |  |  |  | 
 |  | COc1ccc(-c2cc(-c3ccccn3)nc(-c3ccccn3)c2)c2ccccc12 [L3] |  |  |  |  |  |  |  |  |  | 0.95 ± 0.08 µM | 0.2 ± 0.02 µM |  |  |  | 
 |  | N.N.[Cl][Pt][Cl] [cisplatin, reference compound] |  |  | 47.5 ± 7.2% | 19.8 ± 5.9% | 0.1 ± 0.1% |  | 65 to 70% |  | induce cellular senescence |  |  | 15.6 ± 5.3 µM | 1.9 ± 0.2 µM | 2- to 3 fold | delay the cycle in the G2/M phase
